ChEMBL document CHEMBL3826970, “Design, synthesis, anti-tumor activity, and molecular modeling of quinazoline and pyrido[2,3-d]pyrimidine derivatives targeting epidermal growth factor receptor” (Eur J Med Chem, 2016)

Key:
MCF7 = assay: cells; format: functional, cell-based; details: Homo sapiens, MCF7, 72 h;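 note: antiproliferative effect quantified with an MTT readout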
SK-BR-3 = assay: cells; format: functional, cell-based; details: Homo sapiens, SK-BR-3, 72 h;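 note: antiproliferative effect determined with an MTT read-out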
Description: Antiproliferative activity against human SK-BR-3 cells after 72 hrs by MTT assay

[1] = Antiproliferative activity against human BT474 cells after 72 hrs by MTT assay; format: functional, cell-based; details: BT-474, 72 h
[2] = target: T1, Epidermal growth factor receptor (Homo sapiens, UniProt P00533); details: at 1 µM
T1 sequence (P00533 whole entry): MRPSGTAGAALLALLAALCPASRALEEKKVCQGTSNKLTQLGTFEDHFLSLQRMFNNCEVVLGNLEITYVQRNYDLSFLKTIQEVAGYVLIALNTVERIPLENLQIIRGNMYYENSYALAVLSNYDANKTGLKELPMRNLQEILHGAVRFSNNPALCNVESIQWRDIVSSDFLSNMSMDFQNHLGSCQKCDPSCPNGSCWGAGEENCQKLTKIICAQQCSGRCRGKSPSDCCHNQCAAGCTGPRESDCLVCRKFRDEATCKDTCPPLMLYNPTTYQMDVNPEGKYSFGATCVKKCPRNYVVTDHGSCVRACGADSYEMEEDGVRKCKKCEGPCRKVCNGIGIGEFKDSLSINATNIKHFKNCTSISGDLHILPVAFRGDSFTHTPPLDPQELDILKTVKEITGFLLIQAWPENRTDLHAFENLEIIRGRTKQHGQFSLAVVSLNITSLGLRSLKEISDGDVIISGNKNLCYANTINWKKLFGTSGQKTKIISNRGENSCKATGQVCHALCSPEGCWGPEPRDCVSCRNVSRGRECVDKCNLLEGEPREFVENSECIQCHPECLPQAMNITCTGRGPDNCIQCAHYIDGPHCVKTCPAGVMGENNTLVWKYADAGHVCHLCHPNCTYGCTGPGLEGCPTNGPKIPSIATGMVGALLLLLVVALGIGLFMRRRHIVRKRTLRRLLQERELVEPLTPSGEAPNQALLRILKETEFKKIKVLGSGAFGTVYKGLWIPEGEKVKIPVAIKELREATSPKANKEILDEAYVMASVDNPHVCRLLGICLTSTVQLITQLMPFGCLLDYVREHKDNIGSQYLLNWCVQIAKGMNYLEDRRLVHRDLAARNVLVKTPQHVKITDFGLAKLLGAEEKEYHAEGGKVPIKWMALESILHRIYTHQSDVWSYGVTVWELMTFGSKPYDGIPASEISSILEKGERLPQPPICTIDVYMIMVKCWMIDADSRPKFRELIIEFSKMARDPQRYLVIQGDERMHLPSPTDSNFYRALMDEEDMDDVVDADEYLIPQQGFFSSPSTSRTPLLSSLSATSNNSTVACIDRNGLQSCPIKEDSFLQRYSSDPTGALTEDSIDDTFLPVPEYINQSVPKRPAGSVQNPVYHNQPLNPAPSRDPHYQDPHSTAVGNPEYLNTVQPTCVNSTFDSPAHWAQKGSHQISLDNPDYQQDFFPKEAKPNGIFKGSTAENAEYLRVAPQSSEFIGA

A549 = assay: cells; format: functional, cell-based; details: Homo sapiens, A549, 72 h;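 note: antiproliferative effect read out by MTT assay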
Description: Antiproliferative activity against human A549 cells after 72 hrs by MTT assay

MDA-MB-231 = assay: cells; format: functional, cell-based; details: Homo sapiens, MDA-MB-231, 72 h;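 note: antiproliferative effect read out with the MTT assay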
[3] = target: Epidermal growth factor receptor (Homo sapiens, UniProt P00533, L858R/T790M); assay: Inhibition of cytoplasmic GST-tagged human recombinant EGFR L858R/T790M double mutant (668-1210 residues) expressed in baculovirus system by z-lyte assay
Sequence of Epidermal growth factor receptor (Homo sapiens, UniProt P00533, L858R/T790M) (P00533 25-1210 T790M/L858R limits assumed): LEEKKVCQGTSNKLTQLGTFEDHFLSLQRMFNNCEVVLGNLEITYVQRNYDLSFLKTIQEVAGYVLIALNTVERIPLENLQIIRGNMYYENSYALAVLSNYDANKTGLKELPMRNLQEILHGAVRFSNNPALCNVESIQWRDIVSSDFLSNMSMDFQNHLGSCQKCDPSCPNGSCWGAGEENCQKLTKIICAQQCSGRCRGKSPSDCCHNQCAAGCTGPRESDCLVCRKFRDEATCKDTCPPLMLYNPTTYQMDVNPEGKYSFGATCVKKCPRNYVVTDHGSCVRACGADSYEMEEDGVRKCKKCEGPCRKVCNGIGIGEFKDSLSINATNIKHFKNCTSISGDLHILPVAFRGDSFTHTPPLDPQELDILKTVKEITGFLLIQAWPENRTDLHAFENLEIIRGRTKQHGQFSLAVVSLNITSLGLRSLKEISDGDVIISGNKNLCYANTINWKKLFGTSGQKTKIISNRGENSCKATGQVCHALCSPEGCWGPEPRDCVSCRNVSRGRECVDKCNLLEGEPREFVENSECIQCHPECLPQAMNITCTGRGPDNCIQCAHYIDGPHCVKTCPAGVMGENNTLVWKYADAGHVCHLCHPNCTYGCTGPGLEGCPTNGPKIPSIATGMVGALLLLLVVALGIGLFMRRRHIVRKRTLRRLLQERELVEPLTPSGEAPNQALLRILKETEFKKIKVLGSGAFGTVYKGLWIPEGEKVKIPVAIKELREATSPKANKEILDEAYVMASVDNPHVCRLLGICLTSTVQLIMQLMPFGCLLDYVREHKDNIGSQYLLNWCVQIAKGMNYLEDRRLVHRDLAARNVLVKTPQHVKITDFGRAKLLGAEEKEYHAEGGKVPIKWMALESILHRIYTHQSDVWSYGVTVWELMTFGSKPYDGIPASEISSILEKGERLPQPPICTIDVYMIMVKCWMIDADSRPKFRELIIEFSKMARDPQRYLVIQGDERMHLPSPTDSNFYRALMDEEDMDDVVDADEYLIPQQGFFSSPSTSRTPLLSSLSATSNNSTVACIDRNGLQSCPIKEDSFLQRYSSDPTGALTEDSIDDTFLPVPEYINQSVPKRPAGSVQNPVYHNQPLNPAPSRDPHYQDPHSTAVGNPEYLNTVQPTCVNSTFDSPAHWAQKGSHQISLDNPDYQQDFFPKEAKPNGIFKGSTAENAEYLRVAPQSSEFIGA

[4] = target: Receptor tyrosine-protein kinase erbB-2 (Homo sapiens, UniProt P04626); assay: Inhibition of cytoplasmic His-tagged human ErbB2 expressed in baculovirus system by z-lyte assay
Sequence of Receptor tyrosine-protein kinase erbB-2 (P04626 whole entry): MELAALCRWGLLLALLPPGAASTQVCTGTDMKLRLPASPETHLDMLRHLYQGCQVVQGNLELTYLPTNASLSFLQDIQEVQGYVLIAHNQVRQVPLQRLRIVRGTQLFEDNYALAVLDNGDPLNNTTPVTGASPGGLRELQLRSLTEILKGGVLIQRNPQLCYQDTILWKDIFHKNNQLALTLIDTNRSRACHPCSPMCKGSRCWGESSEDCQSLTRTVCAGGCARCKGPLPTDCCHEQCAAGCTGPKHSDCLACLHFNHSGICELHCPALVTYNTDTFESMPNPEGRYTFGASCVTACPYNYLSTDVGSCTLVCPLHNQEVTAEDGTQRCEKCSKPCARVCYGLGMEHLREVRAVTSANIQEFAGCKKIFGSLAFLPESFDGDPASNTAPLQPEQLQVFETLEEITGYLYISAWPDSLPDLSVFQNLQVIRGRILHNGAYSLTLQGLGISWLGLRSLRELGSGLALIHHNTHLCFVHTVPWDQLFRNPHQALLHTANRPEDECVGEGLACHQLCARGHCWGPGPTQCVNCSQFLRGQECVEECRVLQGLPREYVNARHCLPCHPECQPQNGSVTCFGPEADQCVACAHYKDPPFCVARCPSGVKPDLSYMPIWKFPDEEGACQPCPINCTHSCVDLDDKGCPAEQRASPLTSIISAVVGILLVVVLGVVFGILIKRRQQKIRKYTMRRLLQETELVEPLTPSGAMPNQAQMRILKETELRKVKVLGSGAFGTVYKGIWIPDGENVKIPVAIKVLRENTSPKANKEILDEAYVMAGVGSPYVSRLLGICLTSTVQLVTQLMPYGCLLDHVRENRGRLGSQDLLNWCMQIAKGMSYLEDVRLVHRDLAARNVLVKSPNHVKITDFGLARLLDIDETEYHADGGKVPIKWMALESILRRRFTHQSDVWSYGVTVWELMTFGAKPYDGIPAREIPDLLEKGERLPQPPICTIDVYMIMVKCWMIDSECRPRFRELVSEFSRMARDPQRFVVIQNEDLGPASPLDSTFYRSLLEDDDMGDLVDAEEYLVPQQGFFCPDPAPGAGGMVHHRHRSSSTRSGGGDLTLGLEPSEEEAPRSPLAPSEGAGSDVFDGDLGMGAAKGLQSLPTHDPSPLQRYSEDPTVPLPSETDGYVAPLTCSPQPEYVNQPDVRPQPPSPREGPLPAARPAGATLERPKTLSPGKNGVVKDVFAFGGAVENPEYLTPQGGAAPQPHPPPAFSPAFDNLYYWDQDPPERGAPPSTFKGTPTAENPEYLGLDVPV

[5] = target: T1, Epidermal growth factor receptor
Description: Inhibition of cytoplasmic GST-tagged human recombinant EGFR expressed in baculovirus system by z-lyte assay

[6] = target: Receptor tyrosine-protein kinase erbB-4 (Homo sapiens, UniProt Q15303); assay: Inhibition of cytoplasmic GST-tagged human ErbB4 expressed in baculovirus system by z-lyte assay
Sequence of Receptor tyrosine-protein kinase erbB-4 (Q15303 whole entry): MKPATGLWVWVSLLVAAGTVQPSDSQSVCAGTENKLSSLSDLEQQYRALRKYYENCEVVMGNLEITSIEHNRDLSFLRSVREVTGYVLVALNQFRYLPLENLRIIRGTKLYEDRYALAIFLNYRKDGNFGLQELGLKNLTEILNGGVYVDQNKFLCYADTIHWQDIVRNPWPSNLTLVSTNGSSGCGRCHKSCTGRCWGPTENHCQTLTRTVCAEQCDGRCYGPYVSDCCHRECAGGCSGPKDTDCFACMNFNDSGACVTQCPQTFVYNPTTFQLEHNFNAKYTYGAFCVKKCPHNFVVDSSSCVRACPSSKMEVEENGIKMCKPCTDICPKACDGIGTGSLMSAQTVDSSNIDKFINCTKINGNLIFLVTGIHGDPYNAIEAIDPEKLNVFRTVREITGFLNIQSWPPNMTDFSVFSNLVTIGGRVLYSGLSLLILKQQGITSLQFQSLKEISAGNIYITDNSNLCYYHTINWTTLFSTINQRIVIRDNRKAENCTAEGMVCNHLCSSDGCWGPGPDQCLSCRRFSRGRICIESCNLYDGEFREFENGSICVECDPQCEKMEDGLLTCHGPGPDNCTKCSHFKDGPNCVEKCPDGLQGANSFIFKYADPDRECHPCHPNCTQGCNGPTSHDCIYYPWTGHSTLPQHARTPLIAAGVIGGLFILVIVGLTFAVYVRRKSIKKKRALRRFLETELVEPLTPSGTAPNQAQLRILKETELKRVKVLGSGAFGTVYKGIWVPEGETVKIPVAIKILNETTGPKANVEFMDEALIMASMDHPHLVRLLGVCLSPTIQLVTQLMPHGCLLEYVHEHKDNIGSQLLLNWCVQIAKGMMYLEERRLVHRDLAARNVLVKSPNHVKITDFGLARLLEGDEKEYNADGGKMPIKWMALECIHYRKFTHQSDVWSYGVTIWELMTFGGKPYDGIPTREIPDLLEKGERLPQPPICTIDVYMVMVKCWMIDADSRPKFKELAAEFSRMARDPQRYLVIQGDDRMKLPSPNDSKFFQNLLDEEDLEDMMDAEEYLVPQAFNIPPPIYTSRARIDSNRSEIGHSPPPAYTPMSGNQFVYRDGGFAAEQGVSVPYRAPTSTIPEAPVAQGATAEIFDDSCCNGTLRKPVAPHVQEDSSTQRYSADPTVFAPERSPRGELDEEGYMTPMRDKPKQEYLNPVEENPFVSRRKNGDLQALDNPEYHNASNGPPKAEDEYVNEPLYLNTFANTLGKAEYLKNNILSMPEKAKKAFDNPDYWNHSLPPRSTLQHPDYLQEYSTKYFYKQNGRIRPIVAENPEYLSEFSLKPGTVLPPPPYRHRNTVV

[7] = target: Epidermal growth factor receptor (Homo sapiens, UniProt P00533, L858R)
Description: Inhibition of cytoplasmic GST-tagged human recombinant EGFR L858R mutant expressed in baculovirus system by z-lyte assay

SMILES	IC50 (MCF7) [µM]	IC50 (SK-BR-3) [µM]	IC50 [1] [µM]	inhibition [2] [%]	IC50 (A549) [µM]	IC50 (MDA-MB-231) [µM]	IC50 [3] [µM]	IC50 [4] [µM]	IC50 [5] [µM]	IC50 [6] [µM]	IC50 [7] [µM]
CC(Nc1ncnc2ncc(-c3cnn(C)c3)cc12)c1c(Cl)ccc(F)c1Cl (stereo not drawn)	> 100	> 100	> 100	9	> 100	> 100					
CC(Nc1ncnc2ncc(-c3cnn(C)c3)cc12)c1ccncc1 (stereo not drawn)	> 100	> 100	> 100	0	> 100	> 100					
CC(Nc1ncnc2ccc(-c3cnn(C4CCNCC4)c3)cc12)c1c(Cl)ccc(F)c1Cl (stereo not drawn)	2.65	4.39	8.13	61	7	12.6					
CC(Oc1nc(N)nc2ccc(-c3cnn(C4CCNCC4)c3)cc12)c1c(Cl)ccc(F)c1Cl (stereo not drawn)	1.24	7.12	3	7	9.49	7					
C#Cc1cccc(Nc2ncnc3ccc(-c4cnn(C)c4)cc23)c1	11.4	5.87	5.68	102	9.86	16.9	> 1	0.59	0.00358	0.782	0.00425
Cn1cc(-c2ccc3ncnc(Oc4ccc5ncccc5c4)c3c2)cn1	22	14.4	24.3	43	26.6	16.5					
COc1cccc(CNc2ncnc3ccc(-c4cnn(C)c4)cc23)c1	40	36	30.4	67	48.9	28.5					
Fc1ccc(Nc2ncnc3ccc(-c4cnn(C5CCNCC5)c4)cc23)cc1Cl	31.3	3.74	15.2	99	29.4	28.4	> 1	1.2	0.0319	1.6	0.0391
Cn1cc(-c2ccc3ncnc(Nc4ccc5ncccc5c4)c3c2)cn1	0.49	0.064	10.9	101	1.38	26.3	> 1	0.874	0.0441	0.93	0.108
COc1cccc(CNc2ncnc3ncc(-c4cnn(C)c4)cc23)c1	> 100	> 100	> 100	18	> 100	> 100					
c1cnc2ccc(Nc3ncnc4ccc(-c5cnn(C6CCNCC6)c5)cc34)cc2c1	61.9	2.66	12.8	96	32	30.3	> 1	1.35	0.0282	1.1	0.035
CC(Nc1nc(N)nc2ccc(-c3cnn(C)c3)cc12)c1c(Cl)ccc(F)c1Cl (stereo not drawn)	2.87	7.14	7.12	12	> 100	7.96					
CC(Nc1ncnc2ncc(-c3cnn(C4CCNCC4)c3)cc12)c1c(Cl)ccc(F)c1Cl (stereo not drawn)	1.63	17.7	13.5	17	29.7	7.11					
Cn1cc(-c2cnc3ncnc(NCc4cccc([N+](=O)[O-])c4)c3c2)cn1	> 100	> 100	> 100	30	> 100	> 100					
CC(Nc1nc(N)nc2ccc(-c3cnn(C4CCNCC4)c3)cc12)c1c(Cl)ccc(F)c1Cl (stereo not drawn)	2.23	1.58	5.1	17	8.8	4.48					
CC(Oc1ncnc2ccc(-c3cnn(C4CCNCC4)c3)cc12)c1c(Cl)ccc(F)c1Cl (stereo not drawn)	2.67	2.5	4.14	52	6.75	6.77					
CC(Oc1ncnc2ccc(-c3cnn(C)c3)cc12)c1c(Cl)ccc(F)c1Cl (stereo not drawn)	22.6	27.2	45.6	11	28.8	30					
Cn1cc(-c2ccc3ncnc(Nc4ccc(F)c(Cl)c4)c3c2)cn1	52.2	3.1	5.26	101	> 100	62.6	> 1	0.676	0.00297	0.801	0.0035
